Data set [1] relates to cynomolgus monkeys. Description: Lipid panel in monkeys after single IV or PO dose. It is filed as in vivo, cynomolgus monkey. The following applies: 30 mg/kg IV or PO (3 each, 6 monkeys), 24 hrs post-dose, ±SD. How it is done:
The same monkeys were administered the test compounds in sequence with a washout period between administration of each compound. Monkeys were fasted overnight prior to dosing and food was withheld during the first 4 hours after dosing and food was then allowed. Blood samples were collected at baseline prior to dosing, 4, 12, 24, 48 and 72 hrs after HIF-PHI administration. […] There were a total of 6 monkeys in each dose group, 3 that were dosed PO and 3 dosed IV.

For a further data set, the system named is healthy human subjects. The following applies: 0.15 mg/kg or […] weekly for 4 weeks.
The test system of data set [2] is cynomolgus monkeys. Kind of data set: Cholesterol levels after repeated oral administration in monkey toxicity studies. It is filed as in vivo, cynomolgus monkey. The following applies: 28-Day study, daily oral dosing 1, 10 and 30 mg/kg, day 14 and 29. How it is done:
During these studies monkeys were fasted prior to each blood collection. Plasma samples were then evaluated at pre-dose and at different time-points for levels of total cholesterol.

The subject of data set [3] is Cholesterol Biosynthesis Genes in the Mouse Liver. Kind of data set: Microarray expression of cholesterol biosynthesis genes in mouse liver. Conditions: 10 mg/kg oral. It counts as in vivo. How it is done:
A number of PHI compounds were evaluated for their effect on the expression of cholesterol biosynthesis genes in mouse liver. […] Liver tissue was harvested and stored in RNALater (Life Technologies). Total RNA was isolated with Trizol (Life Technologies) and purified with RNEasy96 (Qiagen) according to the manufacturers' protocols. RNA concentration was measured by NanoDrop (Thermo), and quality was assessed by Bioanalyzer (Agilent).
Biotinylated microarray probe was prepared using the 3′IVT Express kit (Affymetrix) and hybridized to mouse 430A 2.0 arrays as recommended in the manufacturer's protocol. Arrays were stained, washed, and scanned using Affymetrix equipment and software. Three arrays were run for each treatment and time point, each representing the liver sample from one individual animal.
Animals were sacrificed 4 h or 8 h later. Each compound was tested in a separate animal study with separate controls. Liver tissue was harvested and stored in RNALater (Life Technologies). Total RNA was isolated with Trizol (Life Technologies) and purified with RNEasy96 (Qiagen) according to the manufacturers' protocols. RNA concentration was measured by NanoDrop (Thermo), and quality was assessed by Bioanalyzer (Agilent).
For microarray analysis, RNA from animals in each treatment group was pooled in pairs (n=3 pairs for 4 h vehicle, n=2 pairs for all other treatment groups, for a total of 13 arrays per compound study). This approach was used to improve the signal-to-noise ratio on microarrays. Biotinylated probe was prepared using the One-Cycle cDNA synthesis kit (Affymetrix) and hybridized to mouse 430A 2.0 arrays as recommended in the manufacturer's protocol. Arrays were stained, washed, and scanned using Affymetrix equipment and software.
Array quality was assessed with GeneChip Operating System and/or Command Console software (Affymetrix). CEL files were uploaded to GeneSpring 7.3.1 (Agilent) using GC-RMA baseline correction. Principal Components Analysis was used to identify and reject outlier arrays. Data are reported as fold-change compared to timepoint-matched vehicle controls from the same study. Values less than 1.0 indicate a reduction of RNA in the treated animal liver tissue.

The subject of a further data set is DIO mice. Kind of data set: High cholesterol mouse model, diet induced obesity (DIO) mice. The text has this: Ten-week-old male apoE knockout mice (Jackson Laboratories, Bar Harbor, Me.) were fed a normal chow diet (0.02% cholesterol, 13.5% fat by weight; LabDiet). Ten-week-old male diet induced obese mice (DIO Mice, Jackson Laboratories, Bar Harbor, Me.) were fed a high fat diet (0.095% cholesterol, 60% fat by weight; ResearchDiets) starting at six-weeks-old. After 2 weeks of acclimatization, whole blood was collected for baseline measurement before administration of test reagents. All test reagents were administered orally by gavage needle three times a week for 2 weeks for the apoE mice, and three times a week for 4 weeks for the DIO mice. The animals were sacrificed at end of study. Whole blood was collected weekly in Heparin-tube by submandibular bleeding and isolated plasma was stored at −80° C. for measurement of total cholesterol.
DIO mice as described in Example 10 were used to test the effect of various compounds on cholesterol levels. Compound (60 mg/kg) or vehicle was administered to the mice (n=10/group) three times a week for four weeks. A statin compound (rosuvastatin) was also tested. Blood samples were collected at weekly and total cholesterol blood levels were tested.

The test system of a further data set is ApoE deficient mice. Kind of data set: High cholesterol mouse model, ApoE deficient mice, 2 weeks. It is filed as in vivo. Conditions: Compound 60 mg/kg three times a week for two weeks, n=10/group, FIG. 22. The text has this: Ten-week-old male apoE knockout mice (Jackson Laboratories, Bar Harbor, Me.) were fed a normal chow diet (0.02% cholesterol, 13.5% fat by weight; LabDiet). […] After 2 weeks of acclimatization, whole blood was collected for baseline measurement before administration of test reagents. […] The animals were sacrificed at end of study.
ApoE deficient mice as described in Example 10 were used to test the effect of various compounds on cholesterol levels. […] A statin compound (rosuvastatin) was also tested. Blood samples were collected at the end of the study and total cholesterol blood levels were tested. A group of 10 mice was sacrificed at the beginning of the study for a baseline total cholesterol measurement. […] Typically statins show mixed results in this model and are not very effective to reduce cholesterol in mice (Bea et al. 2003 Atherosclerosis 167:187-194).

Experimental for healthy human subjects: Placebo was administered in the same regimen as a control (n=2 or n=1). Fasting blood samples for cholesterol analysis were collected from subjects in the morning on the day of dosing before compound or placebo was administered.

On to `N#Cc1nc(C(=O)NCC(=O)O)c(O)c2c(Oc3ccc(Cl)cc3)cccc12` [Compound C], for which, in the data set on cynomolgus monkeys [1], the “Cholesterol change from baseline” value was -11.8 ± 4.9 mg/dL, the “HDL change from baseline” value is listed as 0.5 ± 6.9 mg/dL and the “TGs change from baseline” value is -10 ± 21 mg/dL. The “total cholesterol levels over the course of treatment” value with healthy human subjects is given as “decreased”. For the same compound, in the data set with cynomolgus monkeys [2], the total cholesterol levels entry is given as “dose-dependent decrease in cholesterol levels”. Moreover, the total cholesterol levels entry in the data set on cynomolgus monkeys [2] (listed as compound C) is recorded as “dose dependent decrease in total cholesterol”.
As to `N#Cc1nc(C(=O)NCC(=O)O)c(O)c2ccn(Cc3ccccc3F)c12` [Compound G, {[7-Cyano-1-(2-fluoro-benzyl)-4-hydroxy-1H-pyrrolo[2,3-c]pyridine-5-carbonyl]-amino}-acetic acid], in the data set with cynomolgus monkeys [1], the “Cholesterol change from baseline” value is -6.5 ± 10.4 mg/dL, the “HDL change from baseline” value worked out at 0.17 ± 5.4 mg/dL, the “LDL change from baseline” value is -8.7 ± 5.9 mg/dL and the “LDL/HDL ratio change from baseline” value is −0.13 ± 0.08. Besides, the “TGs change from baseline” value with cynomolgus monkeys [1] is -23 ± 8 mg/dL. For the same compound, in data set [3] (4 h), the “3-hydroxy-3-methylglutaryl-Coenzyme A reductase (Hmgcr) RNA expression” value amounted to 0.68 fold-change, the “3-hydroxy-3-methylglutaryl-Coenzyme A synthase 1 (Hmgcs1) RNA expression” value is listed as 1.29 fold-change, the “7-dehydrocholesterol reductase (Dhcr7) RNA expression” value turned out to be 0.91 fold-change and the “NAD(P) dependent steroid dehydrogenase-like (Nsdhl) RNA expression” value came out at 1.46 fold-change. Besides, in data set [3] (4 h), the “acetyl-Coenzyme A acetyltransferase 2 (Acat2) RNA expression” value was determined as 1.18 fold-change; the “cytochrome P450, family 51 (Cyp51) RNA expression” value was found to be 1.00 fold-change; the “farnesyl diphosphate farnesyl transferase 1 (Fdft1) RNA expression” value stood at 1.15 fold-change; the “farnesyl diphosphate synthetase (Fdps) RNA expression” value is on record as 1.16 fold-change. In data set [3] (4 h), the “isopentenyl-diphosphate delta isomerase (Idi1) RNA expression” value is 1.13 fold-change, the “lanosterol synthase (Lss) RNA expression” value is reported as 1.22 fold-change, the “mevalonate (diphospho) decarboxylase (Mvd) RNA expression” value is on record as 1.03 fold-change and the “mevalonate kinase (Mvk) RNA expression” value worked out at 0.98 fold-change. Besides, in data set [3] (4 h), the “phosphomevalonate kinase (Pmvk) RNA expression” value was 0.95 fold-change; the “squalene epoxidase (Sqle) RNA expression” value was found to be 1.50 fold-change; the “sterol-C4-methyl oxidase-like (Sc4mol) RNA expression” value is recorded as 0.87 fold-change; the “sterol-C5-desaturase (fungal ERG3, delta-5-desaturase) homolog (S. cerevisae) (Sc5d) RNA expression” value is reported as 0.70 fold-change. Besides, in data set [3] (8 h), the “3-hydroxy-3-methylglutaryl-Coenzyme A reductase (Hmgcr) RNA expression” value is 0.66 fold-change, the “3-hydroxy-3-methylglutaryl-Coenzyme A synthase 1 (Hmgcs1) RNA expression” value is 0.82 fold-change, the “7-dehydrocholesterol reductase (Dhcr7) RNA expression” value was 1.07 fold-change and the “NAD(P) dependent steroid dehydrogenase-like (Nsdhl) RNA expression” value came to 1.00 fold-change. Besides, in data set [3] (8 h), the “acetyl-Coenzyme A acetyltransferase 2 (Acat2) RNA expression” value was 0.67 fold-change; the “cytochrome P450, family 51 (Cyp51) RNA expression” value stood at 0.62 fold-change; the “farnesyl diphosphate farnesyl transferase 1 (Fdft1) RNA expression” value is reported as 0.98 fold-change; the “farnesyl diphosphate synthetase (Fdps) RNA expression” value is reported as 0.73 fold-change. In data set [3] (8 h), the “isopentenyl-diphosphate delta isomerase (Idi1) RNA expression” value is given as 0.94 fold-change, the “lanosterol synthase (Lss) RNA expression” value was found to be 0.87 fold-change, the “mevalonate (diphospho) decarboxylase (Mvd) RNA expression” value was 1.03 fold-change and the “mevalonate kinase (Mvk) RNA expression” value amounted to 0.89 fold-change. In data set [3] (8 h), the “phosphomevalonate kinase (Pmvk) RNA expression” value is given as 0.70 fold-change; the “squalene epoxidase (Sqle) RNA expression” value was 1.22 fold-change; the “sterol-C4-methyl oxidase-like (Sc4mol) RNA expression” value is listed as 0.58 fold-change; the “sterol-C5-desaturase (fungal ERG3, delta-5-desaturase) homolog (S. cerevisae) (Sc5d) RNA expression” value is 0.48 fold-change. For the same compound, the “body weights at the end of the study” value in the data set with DIO mice (60 mg/kg three times a week for four weeks) is “lower body weights”.
Take `CC(C)c1nc(N(C)S(C)(=O)=O)nc(-c2ccc(F)cc2)c1/C=C/[C@@H](O)C[C@@H](O)CC(=O)O` [rosuvastatin, reference compound]: in the data set with ApoE deficient mice, the “total cholesterol levels at the end of the study compared to baseline” value is listed as “did not show a reduction in cholesterol”. For the same compound, the “percent change from baseline in total cholesterol at two weeks compared to vehicle treated” value in the data set with DIO mice (Compound 60 mg/kg three times a week, n=10/group, FIG. 23) is reported as “lower total cholesterol levels”.

For the origin of these results see patent US20150018384A1, “TREATMENT FOR HIGH CHOLESTEROL” (FibroGen, Inc., priority 2012, published 2015).
